Source: patent publication US9174973B2, “Crystalline forms of azilsartan and preparation and uses thereof” (SUNSHINE LAKE PHARMA CO., LTD., priority 2011, dated 2015)

Legend:
Type in all cases: physicochemical
[1] = Thermal Stability of crystalline form A
Protocol: A layer of crystalline form A having a thickness of less than 5 mm was place in a flat weighing bottle. […] Samples were taken out at 6 days, 11 days and 16 days and examined for purity by HPLC, appearance and crystalline form. The conditions for the HPLC measurements are as shown below. • Instrument: Agilent 1200HPLC • Column: Agilent Eclipse XDB-C18 4.6*150 mm, 5 μm • Detection wavelength: 254 nm • Mobile phase: A phase 10 mM ammonium acetate (pH=3.5) and B phase acetonitrile [table]

[2] = solubility test of crystalline forms in 0.1M HCl (Chinese Pharmacopoeia 2010); conditions: 300 mg in 6 ml 0.1M HCl, 25° C.±2° C.
Protocol: The solubility of crystalline forms A, B, C and D was measured in accordance with the solubility test described in “Chinese Pharmacopoeia 2010”, Topic and Requirement 15. A crystalline form of azilsartan was grinded into powder. The powder (300 mg) was added to 6 ml of 0.1M HCl as the solvent at 25° C.±2° C. […] The total test time was 30 minutes. The solid was deemed as dissolved when no solid was detected in the mixture by human eyes. The solubility data of crystalline forms A, B, C and D of azilsartan are as shown below.

[3] = Humidity Stability of crystalline form A; conditions: 25° C., RH 90%+/−5%, 6 days
Protocol: A layer of crystalline form A having a thickness of less than 5 mm was place in a flat weighing bottle. […] The conditions for the HPLC measurements are as shown below. • Instrument: Agilent 1200HPLC • Column: Agilent Eclipse XDB-C18 4.6*150 mm, 5 μm • Detection wavelength: 254 nm • Mobile phase: A phase 10 mM ammonium acetate (pH=3.5) and B phase acetonitrile [table]

[4] = 0 day (initial sample, before stress)

## CCOc1nc2cccc(C(=O)O)c2n1Cc1ccc(-c2ccccc2-c2noc(=O)[nH]2)cc1 [Form A]
[1]; [4]
  Appearance: White or off-
  Crystalline form: Form A
  RT* (min.) 2.39 (HPLC peak): — (“—” refers to the peak area is less than 3000 or there is no peak)
  RT* (min.) 2.89 (HPLC peak): 0.01%
  RT* (min.) 3.9 (HPLC peak): 0.32%
  RT* (min.) 5.79 (HPLC peak): — (“—” refers to the peak area is less than 3000 or there is no peak)
  RT* (min.) 13.2 (azilsartan peak, purity by HPLC): 99.51%
  RT* (min.) 20.55 (HPLC peak): — (“—” refers to the peak area is less than 3000 or there is no peak)
  RT* (min.) 22.8 (HPLC peak): 0.04%
  RT* (min.) 23.6 (HPLC peak): 0.01%
  RT* (min.) 26.96 (HPLC peak): — (“—” refers to the peak area is less than 3000 or there is no peak)
  RT* (min.) 27.5 (HPLC peak): 0.06%
  RT* (min.) 28.81 (HPLC peak): — (“—” refers to the peak area is less than 3000 or there is no peak)
  RT* (min.) 30.66 (HPLC peak): 0.02%
[1]; 60° C., 6 days
  Appearance: White or off-
  Crystalline form: Form A
  RT* (min.) 2.39 (HPLC peak): — (“—” refers to the peak area is less than 3000 or there is no peak)
  RT* (min.) 2.89 (HPLC peak): 0.02%
  RT* (min.) 3.9 (HPLC peak): 0.33%
  RT* (min.) 5.79 (HPLC peak): 0.01%
  RT* (min.) 13.2 (azilsartan peak, purity by HPLC): 99.47%
  RT* (min.) 20.55 (HPLC peak): 0.01%
  RT* (min.) 22.8 (HPLC peak): 0.04%
  RT* (min.) 23.6 (HPLC peak): 0.02%
  RT* (min.) 26.96 (HPLC peak): 0.01%
  RT* (min.) 27.5 (HPLC peak): 0.06%
  RT* (min.) 28.81 (HPLC peak): 0.01%
  RT* (min.) 30.66 (HPLC peak): 0.03%
[1]; 60° C., 11 days
  Appearance: White or off-
  Crystalline form: Form A
  RT* (min.) 2.39 (HPLC peak): — (“—” refers to the peak area is less than 3000 or there is no peak)
  RT* (min.) 2.89 (HPLC peak): 0.01%
  RT* (min.) 3.9 (HPLC peak): 0.35%
  RT* (min.) 5.79 (HPLC peak): — (“—” refers to the peak area is less than 3000 or there is no peak)
  RT* (min.) 13.2 (azilsartan peak, purity by HPLC): 99.48%
  RT* (min.) 20.55 (HPLC peak): 0.02%
  RT* (min.) 22.8 (HPLC peak): 0.04%
  RT* (min.) 23.6 (HPLC peak): 0.02%
  RT* (min.) 26.96 (HPLC peak): — (“—” refers to the peak area is less than 3000 or there is no peak)
  RT* (min.) 27.5 (HPLC peak): 0.07%
  RT* (min.) 28.81 (HPLC peak): — (“—” refers to the peak area is less than 3000 or there is no peak)
  RT* (min.) 30.66 (HPLC peak): 0.02%
[1]; 60° C., 16 days
  Appearance: White or off-
  Crystalline form: Form A
  RT* (min.) 2.39 (HPLC peak): — (“—” refers to the peak area is less than 3000 or there is no peak)
  RT* (min.) 2.89 (HPLC peak): 0.01%
  RT* (min.) 3.9 (HPLC peak): 0.35%
  RT* (min.) 5.79 (HPLC peak): — (“—” refers to the peak area is less than 3000 or there is no peak)
  RT* (min.) 13.2 (azilsartan peak, purity by HPLC): 99.47%
  RT* (min.) 20.55 (HPLC peak): 0.02%
  RT* (min.) 22.8 (HPLC peak): 0.04%
  RT* (min.) 23.6 (HPLC peak): 0.02%
  RT* (min.) 26.96 (HPLC peak): — (“—” refers to the peak area is less than 3000 or there is no peak)
  RT* (min.) 27.5 (HPLC peak): 0.07%
  RT* (min.) 28.81 (HPLC peak): — (“—” refers to the peak area is less than 3000 or there is no peak)
  RT* (min.) 30.66 (HPLC peak): 0.02%
[2]
  solubility: very soluble
[3]
  Appearance: White or off-
  Crystalline form: Form A
  RT* (min.) 2.39 (HPLC peak): — (“—” refers to the peak area is less than 3000 or there is no peak)
  RT* (min.) 2.89 (HPLC peak): 0.02%
  RT* (min.) 3.9 (HPLC peak): 0.31%
  RT* (min.) 5.79 (HPLC peak): 0.01
  RT* (min.) 13.2 (azilsartan peak, purity by HPLC): 99.48%
  RT* (min.) 20.55 (HPLC peak): — (“—” refers to the peak area is less than 3000 or there is no peak)
  RT* (min.) 22.8 (HPLC peak): 0.05%
  RT* (min.) 23.6 (HPLC peak): 0.02%
  RT* (min.) 26.96 (HPLC peak): — (“—” refers to the peak area is less than 3000 or there is no peak)
  RT* (min.) 27.5 (HPLC peak): 0.07%
  RT* (min.) 28.81 (HPLC peak): — (“—” refers to the peak area is less than 3000 or there is no peak)
